Legend:
[1] = tested on: synaptic NMDA receptors; test: Evoked NMDA EPSC current-voltage relationship in CA1 pyramidal cells; format: cell-based, rat; details: 100 μM APV
Method: (§1) Young rats (Sprague-Dawley, age P15-P20) or mice (C57/B16, age P14-19) were deeply anesthetized with isoflurane and decapitated. The brain was rapidly removed and submerged in an ice-cold oxygenated artificial cerebrospinal fluid (ACSF) comprised of 130 mM NaCl, 24 mM NaHCO3, 3.5 mM KCl, 1.25 mM NaH2PO4, 1 mM CaCl2,3 mM MgCl2, and 10 mM glucose saturated with 95% O2/5% CO2, at pH 7.4.
Slices were placed on the stage of an upright microscope underneath a platinum and nylon restraining grid, and superfused with oxygenated ACSF at room temperature (23° C.), some experiments are performed at 34° C. by a temperature controller (TC-344B, Warner, Hamden). The standard ACSF recording solution was comprised of 130 mM NaCl, 24 mM NaHCO3, 3.5 mM KCl, 1.25 mM NaH2PO4, 1.5 mM CaCl2, 1.5 mM MgCl2, and 10 mM glucose saturated with 95% O2/5% CO2, at pH 7.4. […]
(§2) Synaptic responses were evoked by applying 0.1 ms current injection (1-100 μA) to a bipolar stimulating electrode placed in the stratum radiatum. Thrombin (Calbiochem) concentration was determined as described by Gingrich et al. (2000) using conversion of 1 U/ml=10 nM. […]
EPSCs were evoked by electrical stimulation of Schaffer collateral axons in the CA1 stratum radiatum, and recorded from CA1 pyramidal neurons under voltage clamp. […]

[2] = tested on: CA1 pyramidal cells; test: Current clamp membrane potential of CA1 pyramidal cells in hippocampal slices; format: cell-based, rat; details: APV itself
Method: as §1
The hemisected brain was glued onto the stage of a vibrating microtome (Leica VT1000 S) and sections of 300 μm thickness were cut and stored in an incubation chamber at room temperature for about 1 h before use. For voltage clamp experiments, the solution used to fill the electrodes was comprised of 140 mM Cs-MeSO4, 10 mM HEPES, 7 mM NaCl, 4 mM Mg-ATP, and 0.3 mM Na3-GTP; the solution for current clamp recordings was comprised of 140 mM K-MeSO4, 10 mM HEPES, 7 mM NaCl, 4 mM Mg-ATP, and 0.3 mM Na3-GTP, and supplemented with 1 mM QX314; and 1 mM QX314 was omitted from some current clamp recordings (e.g., FIG. 9e).
Slices were placed on the stage of an upright microscope underneath a platinum and nylon restraining grid, and superfused with oxygenated ACSF at room temperature (23° C.), some experiments are performed at 34° C. by a temperature controller (TC-344B, Warner, Hamden). The standard ACSF recording solution was comprised of 130 mM NaCl, 24 mM NaHCO3, 3.5 mM KCl, 1.25 mM NaH2PO4, 1.5 mM CaCl2, 1.5 mM MgCl2, and 10 mM glucose saturated with 95% O2/5% CO2, at pH 7.4. For some experiments 0.5-1 μM TTX, 10 μM NBQX, or 10-20 μM bicuculline were added to the extracellular solution, extracellular Mg^2+ was reduced to 5 μM, and/or extracellular Ca^2+ raised to 2 mM.
Visually guided whole-cell patch recordings were obtained from CA1 pyramidal neurons in a voltage clamp or current clamp configuration using an Axopatch 200A (Axon Instruments) and a borosilicate patch pipette of 5-7 MΩ resistance. […] Records were filtered at 5 kHz and digitized at 20 kHz using a Digidata 1200 A/D board.
Synaptic responses were evoked by applying 0.1 ms current injection (1-100 μA) to a bipolar stimulating electrode placed in the stratum radiatum. Thrombin (Calbiochem) concentration was determined as described by Gingrich et al. (2000) using conversion of 1 U/ml=10 nM. TFLLR and thrombin were applied by gravity perfusion at 1.0 ml/min, with extensive washing of perfusion lines, chamber, and objective between experiments to remove all residual thrombin, which has been reported to irreversibly cleave and PAR1 at a pM concentration. Removal of all thrombin ensured that PAR1 receptors were not pre-cleaved by residual thrombin prior to experimentation.

[3] = tested on: NMDA receptor-mediated component of the EPSP; test: Current clamp EPSP recording in CA1 pyramidal cells; format: cell-based, rat; details: 50 μM APV
Method: as §1
The hemisected brain was glued onto the stage of a vibrating microtome (Leica VT1000 S) and sections of 300 μm thickness were cut and stored in an incubation chamber at room temperature for about 1 h before use. […]
as §2
A series of current clamp experiments were carried out to directly measure the effects of PAR1 activation on the NMDA receptor-mediated component of the EPSP recorded in the presence of 1.5 mM Mg^2+. […]

[4] = tested on: synaptic NMDA receptors; test: Miniature EPSC analysis in CA1 pyramidal cells; format: cell-based, rat; details: APV 50 μM
Source text: Miniature EPSCs (mEPSCs) were digitized at 10 KHz and the records were filtered with a digital Gaussian filter (−3 dB) with a cutoff frequency of 1 kHz. The mEPSCs were automatically detected and grouped based on an amplitude threshold of 10 pA and a rise time between 0 to 5 (fast rise time) and 5 to 10 ms (slow rise time); a small number of apparent mEPSCs with rise times slower than 10 ms were not studied further. Selected mEPSCs were scaled, averaged, and fitted with a sum of two exponential functions,
Response Amplitude(t)=Amplitude1exp(−time/τ1)+Amplitude2exp(−time/τ2).
If the first decay constant (τ1) and the second decay constant (τ2) were within 10%, the curve was subsequently refitted with a single exponential function. Both the frequency and the peak amplitude of detected events were analyzed. […] All data were acquired, stored, and analyzed using pClamp 8 (Axon Instruments, Foster City, Calif.) and Mini Analysis Program (Synaptosoft). […]
To investigate the effects of PAR1 activation on synaptic NMDA receptors in normal concentrations of Mg^2+ (1.5 mM), the inventors recorded spontaneous miniature excitatory postsynaptic currents (mEPSCs) at −60 mV in the presence of 0.5 μM TTX to look for changes in the amplitude and decay kinetics of individual synaptic currents.

[5] = tested on: PAR1−/− cortical neurons on wild-type astrocyte monolayer; test: PAR1−/− cortical neurons co-cultured on wild-type astrocytes: dendritic Ca2+ and voltage clamp; format: cell-based, mouse
Method: For an astrocyte-neuron co-culture, a monolayer of wild-type astrocytes was grown to 70-100% confluency (7-14 days in culture). Subsequently, the cortex from a P0 to P5 PAR1−/− mouse (Connolly et al., 1996) was dissected free of meninges and digested for 30 min in 1 mg/ml trypsin at 37° C. PAR1−/− mice were >99% C57B1/6 (>7 backcrossings), and wild-type mice were from a colony derived from PAR1−/− littermates.
All experiments were done within 3 generations of establishing the homozygous colony. The cortical cells were plated at low density on top of the monolayer of wild-type astrocytes obtained in above Example 1.1. Neurons were used for Ca^2+ imaging after 1-5 days in culture.
Whole-cell perforated-patch recording from cultured cortical neurons or HEK cells under voltage clamp (holding potential −60 mV) was made with an Axopatch 200B amplifier (Axon Instruments, Union City, Calif.). The recording chamber was continually perfused with a recording solution comprised of 150 mM NaCl, 3 mM KCl, 2 mM CaCl2, 5.5 mM glucose, and 10 mM HEPES (pH 7.4 by NaOH; osmolality adjusted to 315-320 mOsm with sucrose). Recording electrodes (4-7 MΩ) were filled with (in mM) 150 mM CsMeSO4, 10 mM NaCl, 0.5 CaCl2, 10 mM HEPES, and 25-50 μg/ml gramicidin D (pH adjusted to 7.3 with CsOH and osmolality adjusted to 310 mOsm with sucrose). It took 20-30 min to achieve acceptable perforation with series resistance ranging from 30-60 MΩ. All electrophysiological data from cultured neurons cells in this study were collected at room temperature (23-26° C.).
After a 20 min recovery, the bath perfusion was stopped and TFLLR was applied by brief (<1 sec) pressure ejection onto the astrocyte hosting the dye-loaded neuron in a static bath condition. Changes in fluorescence were monitored in a number of dendritic processes (schematized in FIGS. 8a and 8b).

Q: `N[C@H](CCCP(=O)(O)O)C(=O)O` [APV, D-2-amino-5-phosphono-valeric acid] was tested. Which “effect on NMDA component of evoked EPSCs” value [1] did it give?
A: Its value is “blocked”.

Q: What about the “effect on resting membrane potential of CA1 neurons” value [2] of the same compound?
A: Its value is 0.4±0.7 mV.

Q: And the “effect on TFLLR potentiation of EPSP area” value [3]?
A: Its value is “reversed”.

Q: What about the “effect on TFLLR-induced τ2” value [4] of the same compound?
A: Its value is “eliminated”.

Q: What about the “peak amplitude of TFLLR-evoked current in presence of APV” value ([5]; 30 μM TFLLR, 50 μM APV) of the same compound?
A: Its value is 2.5±0.3 pA.

Q: What about the “effect on TFLLR-induced dendritic fluorescence increase” value ([5]; APV 50 μM) of the same compound?
A: The value was “blocked”.

Source: patent publication US20080299109A1, “MECHANISM OF ASTRICYTE-NEURON SIGNALING” (Korea Institute of Science and Technology, priority 2007, published 2008)
